Laboratory results as given in patent publication US7741327B2 (Hoffmann-La Roche Inc., priority 2008, dated 2010).

Target: T1, Recombinant human liver GK1 (GST-GK) (Homo sapiens, UniProt P35557)
T1 construct: made in house; host or cells: E. coli
T1 sequence (P35557 1-466 isoform P35557-2): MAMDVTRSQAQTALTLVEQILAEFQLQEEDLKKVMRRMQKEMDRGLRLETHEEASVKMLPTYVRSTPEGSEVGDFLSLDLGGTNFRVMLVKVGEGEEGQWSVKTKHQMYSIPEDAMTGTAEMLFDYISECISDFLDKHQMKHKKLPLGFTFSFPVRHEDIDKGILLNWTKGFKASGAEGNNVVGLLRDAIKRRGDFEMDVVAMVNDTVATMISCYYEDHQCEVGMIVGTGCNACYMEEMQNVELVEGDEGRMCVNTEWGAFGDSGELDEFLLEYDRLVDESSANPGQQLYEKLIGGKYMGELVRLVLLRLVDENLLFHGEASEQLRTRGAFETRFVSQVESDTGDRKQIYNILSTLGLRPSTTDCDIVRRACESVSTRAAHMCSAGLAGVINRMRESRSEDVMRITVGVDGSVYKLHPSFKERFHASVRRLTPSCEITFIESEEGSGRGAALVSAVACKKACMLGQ
Assay: In vitro glucokinase activity (G6PDH-coupled NADH assay)
Format: biochemical
Settings: for SC1.5 (concentration of activator that produced a 50% increase in the activity of GK): 30° C., 5 mM D-glucose, 10% DMSO
Outline: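 Activation measured as the rate of OD340 rise from G6PDH-coupled NADH production, relative to 10% DMSO control, reported as SC1.5 (concentration for 50% activity increase). Conditions: 30° C, pH 7.1 Hepes, 5 mM glucose, 1 mM ATP, purified recombinant GST-human GK1, compound preincubated 10 min before enzyme addition.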

SC1.5 (concentration of activator that produced a 50% increase in the activity of GK) | fold act. @ 30 μM (at 30 μM test compound) | Compound
0.251 µM |  | C=Cc1cccc(OC2=CC(=O)N([C@@H](CC(C)C)C(=O)Nc3ccn(C[C@@H]4COC(C)(C)O4)n3)C2)c1F [Example 144, (S)-2-[4-(2-Fluoro-3-vinyl-phenoxy)-2-oxo-2,5-dihydro-pyrrol-1-yl]-4-methyl-pentanoic acid [1-((R)-2,2-dimethyl-[1,3]dioxolan-4-yl-methyl)-1H-pyrazol-3-yl]-amide]
2.061 µM |  | CC(C)C[C@@H](C(=O)Nc1ccn(C)n1)N1CC(Oc2cccc(CC(C)(C)O)c2)=CC1=O [Example 235, (S)-2-{4-[3-(2-Hydroxy-2-methyl-propyl)-phenoxy]-2-oxo-2,5-dihydro-pyrrol-1-yl}-4-methyl-pentanoic acid (1-methyl-1H-pyrazol-3-yl)-amide]
2.636 µM |  | CC(C)C[C@@H](C(=O)Nc1ccn(C[C@@H](O)CO)n1)N1CC(Oc2cccc3c2cnn3C)=CC1=O [Example 240, (S)-4-Methyl-2-[4-(1-methyl-1H-indazol-4-yloxy)-2-oxo-2,5-dihydro-pyrrol-1-yl]-pentanoic acid [1-((R)-2,3-dihydroxy-propyl)-1H-pyrazol-3-yl]-amide]
1.109 µM |  | CC(C)(O)Cn1ccc(NC(=O)C(CC2C3CCC2CC3)N2CC(Oc3ccccc3Cl)=CC2=O)n1 (stereo not drawn) [Example 229, 3-bicyclo[2.2.1]hept-7-yl-2-[4-(2-chloro-phenoxy)-2-oxo-2,5-dihydro-pyrrol-1-yl]-N-[1-(2-hydroxy-2-methyl-propyl)-1H-pyrazol-3-yl]-propionamide]
4.435 µM |  | CCOc1ccc(F)c(OC2=CC(=O)N([C@H](CC3CCOCC3)C(=O)Nc3ccn(CC(C)(C)O)n3)C2)c1F (single isomer, unassigned) [Example 258]
1.708 µM |  | CC(C)C[C@@H](C(=O)Nc1cnccn1)N1CC(Oc2cccc(CC(C)(C)O)c2)=CC1=O [Example 246, (S)-2-{4-[3-(2-Hydroxy-2-methyl-propyl)-phenoxy]-2-oxo-2,5-dihydro-pyrrol-1-yl}-4-methyl-pentanoic acid pyrazin-2-ylamide]
0.043 µM |  | CC(C)(O)Cn1ccc(NC(=O)C(C[C@H]2C[C@H](C)C2)N2CC(Oc3ccccc3Cl)=CC2=O)n1 (stereo partly drawn) [Example 214, 2-[4-(2-Chloro-phenoxy)-2-oxo-2,5-dihydro-pyrrol-1-yl]-N-[1-(2-hydroxy-2-methyl-propyl)-1H-pyrazol-3-yl]-3-(trans-3-methyl-cyclobutyl)-propionamide]
0.07 µM |  | COc1cccc(OC2=CC(=O)N([C@@H](CC3CCCCC3)C(=O)Nc3ccn(CC(C)(C)O)n3)C2)c1OC [Example 199, (S)-3-cyclohexyl-2-[4-(2,3-dimethoxy-phenoxy)-2-oxo-2,5-dihydro-pyrrol-1-yl]-N-[1-(2-hydroxy-2-methyl-propyl)-1H-pyrazol-3-yl]-propionamide]
0.013 µM |  | CC(C)(O)Cn1ccc(NC(=O)[C@H](CC2CCCCC2)N2CC(Oc3cc(Cl)ccc3Cl)=CC2=O)n1 [Example 201, (S)-3-cyclohexyl-2-[4-(2,5-dichloro-phenoxy)-2-oxo-2,5-dihydro-pyrrol-1-yl]-N-[1-(2-hydroxy-2-methyl-propyl)-1H-pyrazol-3-yl]-propionamide]
3.036 µM |  | CC(C)C[C@@H](C(=O)Nc1ccn(CC(C)(C)O)n1)N1CC(Oc2cccc3ocnc23)=CC1=O [Example 242, (S)-2-[4-(Benzooxazol-4-yloxy)-2-oxo-2,5-dihydro-pyrrol-1-yl]-4-methyl-pentanoic acid [1-(2-hydroxy-2-methyl-propyl)-1H-pyrazol-3-yl]-amide]
0.012 µM |  | CC(C)(O)Cn1ccc(NC(=O)[C@H](CC2CCCCC2)N2CC(Oc3ccc(Cl)cc3Cl)=CC2=O)n1 [Example 202, (S)-3-cyclohexyl-2-[4-(2,4-dichloro-phenoxy)-2-oxo-2,5-dihydro-pyrrol-1-yl]-N-[1-(2-hydroxy-2-methyl-propyl)-1H-pyrazol-3-yl]-propionamide]
0.134 µM |  | C=Cc1cccc(OC2=CC(=O)N([C@@H](CC(C)C)C(=O)Nc3ccn(C[C@@H](O)CO)n3)C2)c1F [Example 145, (S)-2-[4-(2-Fluoro-3-vinyl-phenoxy)-2-oxo-2,5-dihydro-pyrrol-1-yl]-4-methyl-pentanoic acid [1-((R)-2,3-dihydroxy-propyl)-1H-pyrazol-3-yl]-amide]
4.725 µM |  | O=C(Nc1ccn(C[C@@H](O)CO)n1)[C@@H](CC1CCC1)N1CC(Oc2ccccc2Cl)=CC1=O [Example 177, (R)-2-[4-(2-chloro-phenoxy)-2-oxo-2,5-dihydro-pyrrol-1-yl]-3-cyclobutyl-N-[1-((R)-2,3-dihydroxy-propyl)-1H-pyrazol-3-yl]-propionamide]

Second part, the compound before the results:

Compound | SC1.5 (concentration of activator that produced a 50% increase in the activity of GK) | fold act. @ 30 μM (at 30 μM test compound)
CC(C)C[C@@H](C(=O)Nc1ccn(C[C@@H]2COC(C)(C)O2)n1)N1CC(Oc2cccc(Cl)c2Cl)=CC1=O [Example 79, (S)-2-[4-(2,3-Dichloro-phenoxy)-2-oxo-2,5-dihydro-pyrrol-1-yl]-4-methyl-pentanoic acid [1-((R)-2,2-dimethyl-[1,3]dioxolan-4-yl-methyl)-1H-pyrazol-3-yl]-amide] | 0.682 µM | 
COc1ccccc1OC1=CC(=O)N(C(CC2CCOCC2)C(=O)Nc2ccn(CC(C)(C)O)n2)C1 (stereo not drawn) [Example 34, N-[1-(2-hydroxy-2-methyl-propyl)-1H-pyrazol-3-yl]-2-[4-(2-methoxy-phenoxy)-2-oxo-2,5-dihydro-pyrrol-1-yl]-3-(tetrahydropyran-4-yl)-propionamide] | 0.217 µM | 
COC1=CC(=O)N([C@@H](CC2CCCC2)C(=O)Nc2ccn(CCNC(=O)OC(C)(C)C)n2)C1 [Example 7, (2-{3-[(S)-3-Cyclopentyl-2-(4-methoxy-2-oxo-2,5-dihydro-pyrrol-1-yl)-propionylamino]-pyrazol-1-yl}-ethyl)-carbamic acid t-butylester] | 13.732 µM | 
Cc1nsc(NC(=O)[C@H](CC(C)C)N2CC(Oc3ccccc3Cl)=CC2=O)n1 [Example 107, (S)-2-[4-(2-Chloro-phenoxy)-2-oxo-2,5-dihydro-pyrrol-1-yl]-4-methyl-pentanoic acid (3-methyl-[1,2,4]thiadiazol-5-yl)-amide] | > 30 µM | 1.4 fold
CC1(C)OC[C@@H](Cn2ccc(NC(=O)[C@H](CC3CCCCC3)N3CC(Oc4ccccc4Cl)=CC3=O)n2)O1 [Example 62] | 0.01 µM | 
O=C(Nc1ccn(C[C@@H](O)CO)n1)[C@H](CC1CCCCC1)N1CC(Oc2c(F)cccc2F)=CC1=O [Example 38, (S)-3-Cyclohexyl-2-[4-(2,6-difluoro-phenoxy)-2-oxo-2,5-dihydro-pyrrol-1-yl]-N-[1-((R)-2,3-dihydroxy-propyl)-1H-pyrazol-3-yl]-propionamide] | 0.027 µM | 
COC(=O)c1ccc(NC(=O)[C@H](CC2CCCCC2)N2CC(Oc3c(F)cccc3Cl)=CC2=O)nc1 [Example 69, 6-{(S)-2-[4-(2-Chloro-6-fluoro-phenoxy)-2-oxo-2,5-dihydro-pyrrol-1-yl]-3-cyclohexyl-propionylamino}-nicotinic acid methyl ester] | 0.047 µM | 
Cc1ccccc1OC1=CC(=O)N([C@@H](CC(C)C)C(=O)Nc2ccn(C[C@@H](O)CO)n2)C1 [Example 124, (S)-4-Methyl-2-(2-oxo-4-o-tolyloxy-2,5-dihydro-pyrrol-1-yl)-pentanoic acid [1-((R)-2,3-dihydroxy-propyl)-1H-pyrazol-3-yl]-amide] | 0.336 µM | 
COC1=CC(=O)N([C@@H](CC2CCCC2)C(=O)Nc2ncc(Cl)s2)C1 [Example 2, (S)-N-(5-Chloro-thiazol-2-yl)-3-cyclopentyl-2-(4-methoxy-2-oxo-2,5-dihydro-pyrrol-1-yl)-propionamide] | 1.672 µM | 
CC(C)C[C@@H](C(=O)Nc1ccn(C[C@@H](O)CO)n1)N1CC(Oc2c(F)ccc(OC(C)C)c2F)=CC1=O [Example 134, (S)-2-[4-(2,6-Difluoro-3-isopropoxy-phenoxy)-2-oxo-2,5-dihydro-pyrrol-1-yl]-4-methyl-pentanoic acid [1-((R)-2,3-dihydroxy-propyl)-1H-pyrazol-3-yl]-amide] | 0.069 µM | 
